Converted amounts (≈) assume the structure as drawn.
Tested on: P388
Test: Cytotoxicity against P-388 leukemia cells
Type: functional, cell-based
Conditions: Mus musculus

Point of comparison: COc1ccc(-c2c3c(nc4cc5c(cc24)OCO5)COC3=O)cc1OC, IC50 40 µg/mL (≈ 109 µM). Against it:
- COc1ccc(C2c3cc4c(cc3NC3COC(=O)C32)OCO4)cc1OC (centres undefined) — 830-fold lower, 0.048 µg/mL (≈ 0.13 µM)
- COc1cc(-c2c3c(nc4cc(OC)c(OC)c(OC)c24)COC3=O)cc(OC)c1OC — within 1.5-fold, 29 µg/mL (≈ 65.7 µM)
- COc1cc(C2C3=C(O)CCC3=Nc3cc4c(cc32)OCO4)cc(OC)c1OC (centres undefined) — 1400-fold lower, 0.028 µg/mL (≈ 0.0708 µM)
- COc1cc(-c2c3c(nc4cc5c(cc24)-c2ccccc2C5)COC3=O)cc(OC)c1OC — 1.6-fold higher, 63 µg/mL (≈ 143 µM)
- COc1cc(-c2c3c(nc4cc5c(cc24)OCCO5)COC3=O)cc(OC)c1OC — 2-fold higher, 80 µg/mL (≈ 195 µM)
- COc1cccc(C2C3=C(O)OCC3=Nc3cc4c(cc32)OCO4)c1 (centres undefined) — 7500-fold lower, 0.0053 µg/mL (≈ 0.0157 µM)
- COc1cc(C2C3=C(O)OCC3=Nc3cc4c(cc32)OCCO4)cc(OC)c1OC (centres undefined) — 24000-fold lower, 0.0017 µg/mL (≈ 0.00413 µM)
- COc1cc(-c2c3c(nc4cc5c(cc24)OCO5)CCC3=O)cc(OC)c1OC — 1.8-fold higher, 71 µg/mL (≈ 180 µM)
- COc1ccc(C2C3=C(O)OCC3=Nc3cc4c(cc32)OCO4)cc1 (centres undefined) — 310-fold lower, 0.13 µg/mL (≈ 0.385 µM)
- COc1cc(-c2c3c(nc4cc5c(cc24)OCO5)COC3=O)cc(OC)c1OC — higher, > 100 µg/mL
- COc1cc(C2C3=C(O)OCC3=Nc3cc4c(cc32)CCC4)cc(OC)c1OC (centres undefined) — 9800-fold lower, 0.0041 µg/mL (≈ 0.0104 µM)
- OC1=C2C(=Nc3cc4c(cc3C2c2ccc3c(c2)OCO3)OCO4)CO1 (centres undefined) — 1300-fold lower, 0.03 µg/mL (≈ 0.0854 µM)
- COc1cc2nc3c(c(-c4cc(OC)c(OC)c(OC)c4)c2cc1OC)C(=O)OC3 — higher, > 100 µg/mL
- COc1ccc(C2C3=C(O)OCC3=Nc3cc(OC)c(OC)cc32)cc1OC (centres undefined) — 53-fold lower, 0.76 µg/mL (≈ 1.98 µM)
- COc1cc2nc3c(c(-c4ccc5c(c4)OCO5)c2cc1OC)C(=O)OC3 — 20-fold lower, 2 µg/mL (≈ 5.47 µM)
- COc1cc(-c2c3c(nc4cc5c(cc24)CCC5)COC3=O)cc(OC)c1OC — higher, > 100 µg/mL
- COc1cc(C2C3=C(O)OCC3=Nc3cc4c(cc32)-c2ccccc2C4)cc(OC)c1OC (centres undefined) — 43-fold lower, 0.92 µg/mL (≈ 2.08 µM)
- COc1ccc(-c2c3c(nc4cc(OC)c(OC)cc24)COC3=O)cc1OC — within 1.5-fold, 39 µg/mL (≈ 102 µM)
- COc1ccc(-c2c3c(nc4cc5c(cc24)OCO5)COC3=O)cc1 — higher, > 100 µg/mL
- O=C1OCc2nc3cc4c(cc3c(-c3ccccc3)c21)OCO4 — 1.5-fold higher, 60 µg/mL (≈ 197 µM)
- COc1cc2c(cc1OC)C(c1ccc3c(c1)OCO3)C1=C(O)OCC1=N2 (centres undefined) — 52-fold lower, 0.77 µg/mL (≈ 2.1 µM)
- COc1cccc(-c2c3c(nc4cc5c(cc24)OCO5)COC3=O)c1 — higher, > 100 µg/mL
- O=C1OCc2nc3cc4c(cc3c(-c3ccc5c(c3)OCO5)c21)OCO4 — higher, > 100 µg/mL
- COc1cc(C2C3=C(COC3=O)Nc3cc(OC)c(OC)c(OC)c32)cc(OC)c1OC (centres undefined) — 15-fold lower, 2.6 µg/mL (≈ 5.86 µM)
- COc1cc(C2C3=C(COC3=O)Nc3cc4c(cc32)OCO4)cc(OC)c1OC (centres undefined) — 22000-fold lower, 0.0018 µg/mL (≈ 0.00453 µM)
- COc1cc2c(cc1OC)C(c1cc(OC)c(OC)c(OC)c1)C1=C(O)OCC1=N2 (centres undefined) — 8.2-fold lower, 4.9 µg/mL (≈ 11.9 µM)
- OC1=C2C(=Nc3cc4c(cc3C2c2ccccc2)OCO4)CO1 (centres undefined) — 7500-fold lower, 0.0053 µg/mL (≈ 0.0172 µM)
- COc1cc([C@@H]2c3cc4c(cc3[C@H](O)[C@H]3COC(=O)[C@H]23)OCO4)cc(OC)c1OC [PODOFILOX] — 9300-fold lower, 0.0043 µg/mL (≈ 0.0104 µM)

From ChEMBL document CHEMBL1133388, “4-Aza-2,3-dehydro-4-deoxypodophyllotoxins: simple aza-podophyllotoxin analogues possessing potent cytotoxicity” (Bioorg Med Chem Lett, 2000)
